How the values were obtained:
eqBuChE = target: T1, eqBuChE (Equus caballus, UniProt P81908); test: kinetic studies of eqBuChE inhibition; format: biochemical
T1 construct: AChE was obtained from electric eel and BuChE from equine serum; purchased Sigma Aldrich; host or cells: equine serum (natural source)
Experimental: Moreover, the dissociation constant (Ki), describing the binding affinity between the inhibitor and the enzyme, was determined.
EqBuChE stock solution was diluted with demineralized water prior to use, giving the final concentration of 0.027 U/mL in the wells. […] For each concentration of the target compound, all six BTC solutions were utilized to perform the assays. Vmax and Km values of the Michaelis−Menten kinetics were calculated by nonlinear regression from substrate−velocity curves. Lineweaver-Burk and Cornish-Bowden plots were calculated using linear regression in GraphPad Prism 5 (GraphPad Software, San Diego, CA, USA). Each experiment was performed in triplicate.

AChE from electric eel = target: T2, AChE from electric eel (Electrophorus electricus, UniProt O42275); conditions: cited from earlier work
T2 construct: AChE was obtained from electric eel and BuChE from equine serum; purchased Sigma Aldrich; host or cells: electric eel (natural source)
T2 sequence (O42275 24-633): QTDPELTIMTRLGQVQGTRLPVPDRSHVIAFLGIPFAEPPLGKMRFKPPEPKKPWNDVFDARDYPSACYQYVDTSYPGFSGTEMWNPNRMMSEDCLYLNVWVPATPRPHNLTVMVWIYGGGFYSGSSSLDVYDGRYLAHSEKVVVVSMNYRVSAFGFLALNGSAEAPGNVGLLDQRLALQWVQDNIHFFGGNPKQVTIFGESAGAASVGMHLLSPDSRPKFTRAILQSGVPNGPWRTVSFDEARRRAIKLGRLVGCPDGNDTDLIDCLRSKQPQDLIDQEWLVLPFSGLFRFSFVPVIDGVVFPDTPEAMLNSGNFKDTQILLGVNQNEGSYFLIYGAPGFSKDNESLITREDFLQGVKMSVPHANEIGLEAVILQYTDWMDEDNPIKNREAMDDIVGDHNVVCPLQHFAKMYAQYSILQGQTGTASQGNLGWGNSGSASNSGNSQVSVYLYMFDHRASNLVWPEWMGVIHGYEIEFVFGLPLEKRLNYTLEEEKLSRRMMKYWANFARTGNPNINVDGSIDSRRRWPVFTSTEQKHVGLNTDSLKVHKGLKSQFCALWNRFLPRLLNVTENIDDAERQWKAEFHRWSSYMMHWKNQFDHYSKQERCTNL

human MAO B = target: T3, human MAO B (Homo sapiens, UniProt P27338); test: fluorometric Monoamine Oxidase assay; format: biochemical; conditions: at 1 μM; read-out: hMAO B %Inh. (converted)
T3 construct: purchased Sigma Aldrich M7441
T3 sequence (P27338 1-520): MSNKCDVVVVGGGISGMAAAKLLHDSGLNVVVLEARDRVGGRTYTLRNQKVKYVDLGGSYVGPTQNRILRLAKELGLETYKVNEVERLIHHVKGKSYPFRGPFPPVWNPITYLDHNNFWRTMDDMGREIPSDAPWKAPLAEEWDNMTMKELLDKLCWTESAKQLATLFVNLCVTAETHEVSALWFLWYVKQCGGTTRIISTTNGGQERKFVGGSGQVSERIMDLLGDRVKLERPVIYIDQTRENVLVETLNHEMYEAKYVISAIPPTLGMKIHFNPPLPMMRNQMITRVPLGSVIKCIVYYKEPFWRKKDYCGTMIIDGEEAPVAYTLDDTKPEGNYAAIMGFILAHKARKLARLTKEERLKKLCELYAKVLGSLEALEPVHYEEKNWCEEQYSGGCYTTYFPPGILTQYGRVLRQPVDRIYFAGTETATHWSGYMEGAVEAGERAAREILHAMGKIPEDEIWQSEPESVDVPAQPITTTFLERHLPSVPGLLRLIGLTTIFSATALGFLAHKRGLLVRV
Experimental: Inhibition of human MAO B (hMAO B) was evaluated using a fluorometric Monoamine Oxidase assay as we described previously.
Inhibition of hMAO B was evaluated using fluorometric Monoamine Oxidase assay as described by Łażewska et al.. Recombinant MAO B was purchased from Sigma Aldrich (M7441). […] The assay was carried out in 96-well plate. Tested compounds dissolved in DMSO (1 μM) were added to wells that contained 98 µL of enzyme dilution (1 µg/well) in phosphate buffer (50 mM, pH 7.4). […] An enzymatic reaction started following addition of para-tyramine solution (200 μM). […] Each experiment was performed in duplicate.

BuChE from equine serum = target: T4, BuChE from equine serum (Equus caballus, UniProt P81908); conditions: read-out: eqBuChE IC50 Mean ± SEM; cited from earlier work
T4 construct: AChE was obtained from electric eel and BuChE from equine serum; purchased Sigma Aldrich; host or cells: equine serum (natural source)
T4 sequence (P81908 whole entry): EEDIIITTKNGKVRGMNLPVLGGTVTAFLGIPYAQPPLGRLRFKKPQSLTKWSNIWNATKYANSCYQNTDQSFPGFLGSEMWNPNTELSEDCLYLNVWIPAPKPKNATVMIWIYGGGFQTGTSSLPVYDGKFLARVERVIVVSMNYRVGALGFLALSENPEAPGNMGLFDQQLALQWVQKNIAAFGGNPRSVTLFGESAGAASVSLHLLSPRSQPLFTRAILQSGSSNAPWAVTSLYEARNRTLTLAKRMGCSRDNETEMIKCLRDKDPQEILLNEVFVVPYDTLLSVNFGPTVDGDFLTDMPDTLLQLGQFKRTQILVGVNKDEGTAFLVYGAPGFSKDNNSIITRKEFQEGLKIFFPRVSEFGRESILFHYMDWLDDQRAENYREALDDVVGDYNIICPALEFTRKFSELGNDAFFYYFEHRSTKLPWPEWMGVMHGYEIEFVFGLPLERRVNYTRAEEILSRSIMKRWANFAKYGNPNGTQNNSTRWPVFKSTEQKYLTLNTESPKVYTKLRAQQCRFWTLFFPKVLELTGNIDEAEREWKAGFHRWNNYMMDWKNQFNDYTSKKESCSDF

[1] = target: human acetylcholinesterase; conditions: read-out: hAChE IC50; cited from earlier work
[2] = target: human butyrylcholineserase; conditions: read-out: hBuChE IC50; cited from earlier work
hH3R = conditions: cited from earlier work

T1 sequence (P81908 whole entry): as above

SMILES | type of eqBuChE inhibition (eqBuChE; Lineweaver–Burk and Cornish–Bowden plots, substrate butyrylthiocholine) | Ki (eqBuChE; replot of Lineweaver–Burk data, read-out: dissociation constant (Ki) for eqBuChE) [nM] | IC50 (AChE from electric eel; AChE from electric eel, read-out: eeAChE IC50 Mean ± SEM) [nM] | eeAChE % Inh. (AChE from electric eel; at 10 μM) | inhibition at 1 µM (human MAO B) [%] | IC50 (BuChE from equine serum) [nM] | IC50 [1] [nM] | IC50 [2] [nM] | Ki (hH3R) [nM]
c1ccc(-c2ccc(OCCCCCCN3CCCCCC3)cc2)cc1 [Compound 5] | non-competitive type of eqBuChE inhibition | 652 | 2760 ± 40 | more than 50% | 45 | 600 ± 10 | – | – | –
C#CCN(C)Cc1cc2cc(OCCCN3CCCCC3)ccc2n1C [contilisant] | – | – | – | – | – | – | 530 | 1690 | 11
Cc1[nH]c2ccccc2c1CC(=O)NCCC1CCN(Cc2ccccc2)CC1 [Compound 1] | – | – | – | – | – | – | 7270 | 1.09 | –
O=c1c2cc(Cl)ccc2oc2ccc(OCCCCCN3CCCCCC3)cc12 [Compound E342] | – | – | – | – | – | – | 120 | 1600 | 100
